Source: US12208112B2, “Composition for treating blood cancer using 4′-thio-5-Aza-2′-deoxycytidine and uses thereof” (Southern Research Institute, priority 2020, dated 2025)
Each block holds one molecule with its values, some of them ahead of it.

Key:
MV4-11 AML cells [1] = assay: Systemic AML model, MV4-11 AML cells transplanted into the bone marrow (survival, clinical observations)
MV4-11 AML cells [2] = assay: Xenograft AML model with subcutaneously transplanted MV4-11 AML cells, alone and in combination with Venetoclax; assay type: in vivo, mouse; conditions: Aza-T-dCyd 2.0 mpk PO alone, Aza-T-dCyd 0.5 mpk with Venetoclax 50 mpk PO, Azacitidine 5.0 mpk IP alone
Excerpt: 5.0 mpk of Azacitidine alone; or 2.5 mpk of Azacitidine in combination of 50 mpk of Venetoclax were intraperitoneal (IP) administered as a control.

[3] = Animal PK, NCA parameters, mouse; conditions: in vivo
[4] = Animal PK, NCA parameters, dog; conditions: in vivo
Molm13 AML cells = assay: Xenograft model with subcutaneously transplanted Molm13 AML cells; assay type: in vivo, mouse; conditions: 1.5 or 2.5 mpk PO, one cycle
cytidine deaminase = cytidine deaminase (Homo sapiens, UniProt P32320); conditions: compared to conventional compounds with a 5-azacytidine backbone; cited from earlier work
Chain of cytidine deaminase (P32320 whole entry, species assumed): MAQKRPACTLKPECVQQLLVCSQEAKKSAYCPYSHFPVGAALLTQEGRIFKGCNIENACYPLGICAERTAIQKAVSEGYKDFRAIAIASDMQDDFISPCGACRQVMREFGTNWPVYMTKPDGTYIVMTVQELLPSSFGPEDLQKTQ

[5] = system: MDS orthotopic animal models; conditions: reported in 2018; cited from earlier work
MV4-11 AML cells [6] = assay: Blood analysis (CBC sampling) in the systemic AML model; conditions: blood samples collected in the AML model experiment
[7] = Animal PK, NCA parameters, rat; conditions: in vivo
normal mouse = assay: Bone marrow toxicity after one-cycle PO administration to a normal mouse; assay type: in vivo
Excerpt: In the case of elderly patients who cannot receive bone marrow transplants, that is, the main targets of decitabine and azacytidine, toxicity in the bone marrow becomes the limit dose that determines a dose for administration, and, thus, the maximum dose that enables safe administration was to be determined.

Mouse PK (AUC) = assay type: in vivo; conditions: for AUC: in vivo, mouse
Excerpt: (§1) Without wishing to be bound by theory, this is excellent efficacy at a level that is impossible to reach by the same family of cytidine-based drugs such as decitabine or azacytidine, which was conventionally used, and according to conventional reports on Aza-T-dCyd, the level corresponds to a dose of a level expected to have toxicity.

[8] = Simulation of human PK using decitabine PK parameters; conditions: from animal parameters, used in human simulation
Excerpt: as §1

[9] = Absorption parameters over three species; assay type: in vivo, mice, rats, or dogs
Excerpt: Details are described in the next section. […] See also FIG. 3 and FIG. 7.
The human F calculated by the equation reported in literature was about 0.65 (from mouse), 0.59 (from rat), or 0.66 (from dog). See Musther et al. (2014) European Journal of Pharmaceutical Sciences 57: 280-291.

[10] = Human PK parameter prediction by interspecies (allometric) scaling; conditions: for F_human (equation result): in % (unit assumed)
Excerpt: PK parameters were scaled allometrically and used to extrapolate the PK in a 70 kg human. Details are described in the next section.
Simple allometric scaling, was used to predict CL, Vc, Vp, and Q. Y is PK parameter, BW is body weight, a is the allometric coefficient, and b is the allometric exponent. Final PK parameters, CL, Vc, Vp, and Q, were extrapolated based on the best-fit-lines (FIG. 8).
See Musther et al. (2014) European Journal of Pharmaceutical Sciences 57: 280-291.
For absorption rate constant (Ka) and bioavailability (F), animal parameters were used.

DNMT1 = DNMT1 (Homo sapiens, UniProt P26358); conditions: background statement; cited from earlier work
Chain of DNMT1 (P26358 whole entry, species assumed): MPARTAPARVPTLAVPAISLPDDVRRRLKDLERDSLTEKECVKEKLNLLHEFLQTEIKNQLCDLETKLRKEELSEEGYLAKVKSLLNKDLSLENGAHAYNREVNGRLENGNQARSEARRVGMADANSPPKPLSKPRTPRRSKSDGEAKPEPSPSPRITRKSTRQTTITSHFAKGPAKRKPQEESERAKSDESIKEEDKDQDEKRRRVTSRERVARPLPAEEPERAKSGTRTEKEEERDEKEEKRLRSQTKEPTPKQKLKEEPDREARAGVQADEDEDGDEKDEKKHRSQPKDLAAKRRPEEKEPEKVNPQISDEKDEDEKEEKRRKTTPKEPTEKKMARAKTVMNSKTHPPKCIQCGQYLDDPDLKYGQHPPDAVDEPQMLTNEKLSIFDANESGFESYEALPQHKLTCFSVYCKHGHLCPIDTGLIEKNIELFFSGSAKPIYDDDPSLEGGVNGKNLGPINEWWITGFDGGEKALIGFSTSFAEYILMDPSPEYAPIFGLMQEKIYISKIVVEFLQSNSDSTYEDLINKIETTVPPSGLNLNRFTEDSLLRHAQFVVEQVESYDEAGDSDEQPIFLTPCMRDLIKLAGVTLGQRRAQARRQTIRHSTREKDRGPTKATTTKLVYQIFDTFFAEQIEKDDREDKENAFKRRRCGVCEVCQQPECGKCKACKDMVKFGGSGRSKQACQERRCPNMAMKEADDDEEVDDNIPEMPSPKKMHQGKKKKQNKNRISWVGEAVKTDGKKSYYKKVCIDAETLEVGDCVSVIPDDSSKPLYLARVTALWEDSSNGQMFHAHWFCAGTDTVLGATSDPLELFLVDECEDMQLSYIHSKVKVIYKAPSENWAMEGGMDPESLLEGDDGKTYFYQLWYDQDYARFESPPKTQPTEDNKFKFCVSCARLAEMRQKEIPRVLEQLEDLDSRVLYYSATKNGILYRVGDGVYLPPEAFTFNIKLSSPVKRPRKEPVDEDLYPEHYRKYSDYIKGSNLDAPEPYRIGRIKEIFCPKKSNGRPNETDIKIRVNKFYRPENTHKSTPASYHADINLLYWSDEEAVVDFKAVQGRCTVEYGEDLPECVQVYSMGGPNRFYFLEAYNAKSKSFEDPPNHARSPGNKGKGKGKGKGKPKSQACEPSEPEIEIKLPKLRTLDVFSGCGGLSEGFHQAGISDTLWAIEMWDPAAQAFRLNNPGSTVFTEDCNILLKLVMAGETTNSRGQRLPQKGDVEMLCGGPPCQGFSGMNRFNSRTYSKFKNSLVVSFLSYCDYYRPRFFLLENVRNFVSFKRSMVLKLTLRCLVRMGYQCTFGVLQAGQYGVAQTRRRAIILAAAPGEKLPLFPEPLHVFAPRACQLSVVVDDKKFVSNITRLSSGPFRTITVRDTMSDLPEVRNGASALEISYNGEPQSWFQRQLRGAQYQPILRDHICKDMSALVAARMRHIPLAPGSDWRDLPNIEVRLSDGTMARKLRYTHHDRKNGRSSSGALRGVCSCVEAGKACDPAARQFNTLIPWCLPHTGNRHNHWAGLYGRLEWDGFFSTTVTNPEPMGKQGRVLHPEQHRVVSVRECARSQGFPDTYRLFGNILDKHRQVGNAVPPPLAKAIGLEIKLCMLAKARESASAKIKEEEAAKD

[11] = system: blood cancer mouse models; assay: Blood cancer mouse models (summary statement); assay type: in vivo; conditions: 1.4 to 2.6 mpk PO for 5 days, 2-day break, 9-day break
in vivo [12] = conditions: rat, iv, 1 mg/kg
[13] = cited from earlier work
in vivo [14] = conditions: mouse, iv, 1 mg/kg
in vivo [15] = conditions: dog, iv, 0.33 mg/kg
[16] = human decitabine parameter used in simulation

SMILES: Nc1ncn(C2CC(O)C(CO)S2)c(=O)n1 (stereo not drawn) [Aza-T-dCyd, 4′-Thio-5-aza-2′-deoxycytidine]
therapeutic efficacy against MDS/AML (MV4-11 AML cells [1]; 1.4 to 2.6 mpk based on a mouse): excellent therapeutic efficacy against MDS/AML
efficacy (MV4-11 AML cells [1]; 1.5 mpk PO, three cycles): an efficacy which did not reach that of the PO administration of 2.0 to 2.5 mpk of Aza-T-dCyd
clinical observations including body weight (MV4-11 AML cells [1]; 2.0 mpk PO, one cycle): stay in the normal range
clinical observations including mouse body weight (MV4-11 AML cells [1]; 2.0 mpk PO, three cycles): remained in the normal range
survival improvement (MV4-11 AML cells [1]; 2.0 mpk PO, three cycles): very excellent survival improvement
death of subjects (MV4-11 AML cells [1]; 2.5 mpk PO, three cycles): led to the death of some subjects
survival improvement (MV4-11 AML cells [1]; one cycle, Aza-T-dCyd 2.0 mpk PO, decitabine and azacytidine at optimal doses as controls): very excellent survival improvement
anti-cancer effects (tumor volume) (MV4-11 AML cells [2]): very excellent anti-cancer effects
bioavailability [3]: 50.6%
AUC(0-inf) ([3]; iv, 1 mg/kg): 406 ng·h/mL
C0 ([3]; iv, 1 mg/kg): 616 ng/mL
Vd ([3]; iv, 1 mg/kg): 1.9 L/kg
clearance ([3]; iv, 1 mg/kg): 42.3 mL/min/kg
half-life ([3]; iv, 1 mg/kg): 0.6 h
bioavailability [4]: 68.7%
AUC(0-inf) ([4]; iv, 0.33 mg/kg): 1130 ng·h/mL
C0 ([4]; iv, 0.33 mg/kg): 586 ng/mL
Vd ([4]; iv, 0.33 mg/kg): 0.81 L/kg
clearance ([4]; iv, 0.33 mg/kg): 5 mL/min/kg
half-life ([4]; iv, 0.33 mg/kg): 2.25 h
anticancer efficacy (Molm13 AML cells): excellent anticancer efficacy close to tumor regression
rate of degradation by cytidine deaminase (cytidine deaminase): reduced rate of degradation by cytidine deaminase
toxicity [5]: so severe that therapeutic efficacy was not observed
blood analysis: major parameters (WBC, neutrophil, platelet, RBC levels) (MV4-11 AML cells [6]): no change in major parameters
bioavailability [7]: 43.2%
AUC(0-inf) ([7]; iv, 1 mg/kg): 1900 ng·h/mL
C0 ([7]; iv, 1 mg/kg): 562 ng/mL
Vd ([7]; iv, 1 mg/kg): 3.53 L/kg
clearance ([7]; iv, 1 mg/kg): 8.83 mL/min/kg
half-life ([7]; iv, 1 mg/kg): 5.01 h
change in the bone marrow (normal mouse; 2.5 mpk PO, one cycle): a significant change in the bone marrow started to be observed
viability and composition of each cell in the bone marrow (normal mouse; up to 2.0 mpk PO, one cycle (5 days, 2-day break, 5 days, 9-day break)): no significant change in the viability and composition of each cell in the bone marrow
maximum range of change of total area under curve (AUC) (Mouse PK (AUC); 2.0 mpk PO): approximately 25%
AUC (Mouse PK (AUC); oral, 0.07 mg/kg, 0.07 mpk): 11.3 ng·h/mL
AUC (Mouse PK (AUC); oral, 0.13 mg/kg, 0.13 mpk): 19.3 ng·h/mL
AUC (Mouse PK (AUC); oral, 0.27 mg/kg, 0.27 mpk): 38.1 ng·h/mL
AUC (Mouse PK (AUC); oral, 0.4 mg/kg, 0.4 mpk): 55.4 ng·h/mL
AUC (Mouse PK (AUC); oral, 0.8 mg/kg, 0.8 mpk): 109 ng·h/mL
AUC (Mouse PK (AUC); oral, 1 mg/kg, 1.0 mpk): 136 ng·h/mL
AUC (Mouse PK (AUC); oral, 1.4 mg/kg, 1.4 mpk): 183 ng·h/mL
AUC (Mouse PK (AUC); oral, 1.5 mg/kg, 1.5 mpk): 203 ng·h/mL
AUC (Mouse PK (AUC); oral, 2.5 mg/kg, 2.5 mpk): 336 ng·h/mL
AUC (Mouse PK (AUC); oral, 2.6 mg/kg, 2.6 mpk): 355 ng·h/mL
AUC (Mouse PK (AUC); oral, 3 mg/kg, 3.0 mpk): 403 ng·h/mL
AUC (Mouse PK (AUC); oral, 10 mg/kg, 10 mpk): 1340 ng·h/mL
AUC (Mouse PK (AUC); po, 2 mg/kg, 2.0 mpk): 270 ng·h/mL
F Absolute bioavailability [8]: 0.6
Ka The first-order absorption rate constant [8]: 2.8 h⁻¹
average absorption rate constant (Ka) ([9]; average from three species): approximately 2.63 h^−1
bioavailability ([9]; mouse, rat, dog, in vivo, average from three species, read-out: average bioavailability (F)): ~54%
Tmax ([9]; mouse, rat, dog, in vivo, range of the three species): 0.25 to 2 h
F_human (equation result) ([10]; From Dog): 66.28
F_human (equation result) ([10]; From Mouse): 65.16
F_human (equation result) ([10]; From Rat): 59.26
human Ka ([10]; estimated assuming Tmax in a human is 1 hour, value set): 2.8 h⁻¹
human F calculated by literature equation ([10]; from dog): ~0.66
human F calculated by literature equation ([10]; from mouse): about 0.65
human F calculated by literature equation ([10]; from rat): ~0.59
CL Clearance, Predicted Value ([10]; predicted for a 70 kg human): 8.95 L/h
F Absolute bioavailability, Predicted Value ([10]; predicted for a 70 kg human): 0.6
Ka The first-order absorption rate constant, Predicted Value ([10]; predicted for a 70 kg human): 2.8 h⁻¹
Q Intercompartmental clearance, Predicted Value ([10]; predicted for a 70 kg human): 250.52 L/h
Vc Central volume = V2, Predicted Value ([10]; predicted for a 70 kg human): 29.50 L
Vp Peripheral volume = V3, Predicted Value ([10]; predicted for a 70 kg human): 12.92 L
human F (set value) ([10]; set in consideration of the results): 0.6
DNMT removal and inhibitory activities in cells (DNMT1): high DNMT removal and inhibitory activities in cells
anticancer effect [11]: significant anticancer effect

blood analysis: major parameters (WBC, neutrophil, platelet, RBC levels) (MV4-11 AML cells [6]): severe neutropenia
SMILES: Nc1ncn([C@@H]2O[C@H](CO)[C@@H](O)[C@H]2O)c(=O)n1 [azacytidine, reference compound]

SMILES: Nc1ncn([C@H]2C[C@H](O)[C@@H](CO)O2)c(=O)n1 [decitabine, reference compound]
half-life (in vivo [12]): 3.71 h
Q Intercompartmental clearance [13, 16]: 23 L/h
Vc Central volume = V2 [13, 16]: 32 L
Vp Peripheral volume = V3 [13, 16]: 40 L
CL Clearance ([13]; human, reported in literature, used in human simulation): 152 L/h
AUC(0-inf) ([3]; iv, 1 mg/kg): 268 ng·h/mL
C0 ([3]; iv, 1 mg/kg): 579 ng/mL
Vd ([3]; iv, 1 mg/kg): 1.7 L/kg
clearance ([3]; iv, 1 mg/kg): 62.5 mL/min/kg
AUC(0-inf) ([4]; iv, 0.33 mg/kg): 1080 ng·h/mL
C0 ([4]; iv, 0.33 mg/kg): 746 ng/mL
Vd ([4]; iv, 0.33 mg/kg): 0.476 L/kg
clearance ([4]; iv, 0.33 mg/kg): 5.17 mL/min/kg
half-life (in vivo [14]): 0.4 h
AUC(0-inf) ([7]; iv, 1 mg/kg): 2370 ng·h/mL
C0 ([7]; iv, 1 mg/kg): 504 ng/mL
Vd ([7]; iv, 1 mg/kg): 2.16 L/kg
clearance ([7]; iv, 1 mg/kg): 7 mL/min/kg
half-life (in vivo [15]): 1.19 h
